Experimental data from patent US12502393B2, “Dual mode of action soluble guanylate cyclase activators and phosphodiesterase inhibitors and uses thereof” (TOPADUR PHARMA AG, priority 2018, dated 2025).
Read-outs that look alike come from different tables or passages of the source.

Experiments:
[1] = tested on: Human Platelets; assay: Total cGMP in human platelets; format: cell-based; settings: for Ratio Maximum cGMP increase vs Baseline: 1 μM riociguat and 100 nM BAY 190954, incubation 2 h; for Concentration (nM) for 3-fold cGMP or 2-fold* increase vs Baseline: 3-fold increase (values without asterisk), 1 μM riociguat, 100 nM BAY 190954
Description: Effects of test and reference compounds on total cGMP in human platelets were investigated as described by Dunkern and Hatzelmann (Cell Signal. 17: 331-9, 2005) with modifications. Briefly, buffy coats (acquired form SRK Blutspende Zurich) were 4-fold diluted in 150 mM sodium chloride solution containing 0.9% sodium citrate and centrifuged at 200 g for 10 min. The resulting platelet-rich plasma was supplemented with a 1/10 volume of ACD solution (85 mM sodium citrate, 111 mM D-glucose, 71 mM citric acid, pH 4.4) and apyrase (Sigma AG) to a final concentration of 2 U/ml. After another centrifugation (1400 g, 10 min) the cellular pellet was resuspended in Ca2+/Mg2+-free Hepes-Tyrode buffer (134 mM NaCl, 12 mM NaHCO3, 2.9 mM KCl, 0.36 mM NaH2PO4, 5 mM HEPES, 5 mM glucose, 0.5% (w/v) bovine serum albumin, pH 7.4) and platelets were counted.
Platelets were used at 9×10^7 cells in 100 μl per well and after adding test and reference compounds the incubation volume was 200 μl per well in Hepes-Tyrode. Experiments in platelets were done in presence of 1 μM riociguat and 100 nM BAY 190954 (PDE2 inhibitor) (Lucerna Chem AG) and test/reference compounds were added after a preincubation time of 15 min. At the end of the incubation time (see below) the reaction was terminated by adding 20 μl of 2N HCl per well. Following a 20 sec on a plate shaker (300 rpm) the plate was left for 15 min and then centrifuged at 1000×g for 5 min. Supernatants were stored at −80° C.
(§1) cGMP was determined by a commercially available ELISA kit (Direct cGMP ELISA kit, Enzo Life Sciences AG, Lauren, Switzerland) with a lower detection limit of 0.08 pmol/ml using the acetylation protocol following manufacturer's instructions. Results are given as the means from at least two independent experiments each in triplicate.
(§2) To study concentration-dependent effects on total cGMP test and reference compounds were investigated from 0.1 nM to 1 μM in half-logarithmic steps with an incubation time of 2 h. To examine the time course the incubation times were (min) 10, 30, 60, 90, 120 at 1 μM of test or reference compound.
(§3) Compounds were diluted from stock solutions in DMSO. The final concentration of DMSO in all wells including the vehicle controls was 0.2% for human trabecular meshwork and rat aortic smooth muscle cells and 0.3% for platelets.
(§4) From time course experiments, the time to half of the maximum cGMP increase with 1 μM of test compound has been extrapolated (t0.5max).

[2] = target: T1, recombinant human (rh) PDE5A (Homo sapiens, UniProt O76074); assay: Phosphodiesterase-5 activity assay (radiometric SPA); format: biochemical; settings: rhPDE5A1, 0.5 μM cGMP, 20 min at 37° C.
T1 construct: GST; purchased SIGMA E9034

[3] = tested on: Rat aortic smooth muscle cells; assay: Cellular cGMP assay in rat aortic smooth muscle cells; format: cell-based; settings: 10 μM Riociguat; for Ratio Maximum cGMP increase vs Baseline: 5 mM GSH, incubation 2 h
Description: Examples (Test compounds) were characterized for their potency and efficacy to elevate cGMP in cellular systems such as human trabecular meshwork cells (Table 3), human platelets (Table 5) and rat aortic smooth muscle cells (Table 4).
Human trabecular meshwork cells (ABC Biopply AG, Solothurn, Switzerland) or rat aortic smooth muscle cells (Sigma Aldrich AG, Buchs, Switzerland) were plated in a 96 well plate precoated with collagen (Collagen Type I solution from rat tail, Sigma; diluted to 0.1 mg/ml) at 20.000 cells per well and grown in corresponding Trabecular Meshwork (ABC Supply AG) or Smooth Muscle (Sigma AG) Growth medium as provided by the manufacturers. After 18 h medium was exchanged and new medium added supplemented with 5 mM GSH. The next day culture medium was exchanged to DMEM with low glucose supplemented with 5 mM GSH. Cells were pre-incubated with 10 μM Riociguat (soluble guanylate cyclase stimulator; Lucerna-Chem AG, Luzern, Switzerland) for 15 min before test or reference compounds or vehicle was added to a final incubation volume of 100 μl per well. At the end of the incubation time (see below) the reaction was terminated by adding HCl (0.16M), IBMX (Isobutylmethylxanthin) (2 mM) in DMSO (2%) to the culture medium, final concentrations per well are given in brackets. Following a 20 sec on a plate shaker (200 rpm) the plate was immediately frozen at −80° C.
as §1, §2, §3, §4

[4] = tested on: Human Trabecular Meshwork Cells; assay: Cellular cGMP assay in human trabecular meshwork cells; format: cell-based; settings: 10 μM Riociguat; for Concentration (nM) for 3-fold or 2-fold* cGMP increase vs Baseline: 3-fold increase (values without asterisk); for Ratio Maximum cGMP increase vs Baseline: 5 mM GSH, incubation 2 h
[5] = Human plasma protein binding; format: in vitro ADME; settings: for fraction unbound: human
Description: An aliquot of 200 μL of human plasma containing test compound was spiked into donor well (red chamber) of the insert. 350 μL of PBS was spiked into receiver well (white chamber) of the insert.
The samples were matrix equilibrated with opposite matrix (25 μL of plasma/buffer sample was matched with 25 μL of blank buffer/plasma). Matrix matched samples were precipitated with 200 μL of acetonitrile containing internal standard. Samples were vortexed at 1000 rpm for 5 min and centrifuged at 4000 rpm for 10 min. Supernatant was separated, diluted 2 fold with water and analysed in LC-MS/MS. (Table 2).

[6] = tested on: Human Pulmonary Artery Smooth Muscle Cells (hPASMC); assay: cGMP in human pulmonary artery smooth muscle cells (hPASMC); format: cell-based; settings: 30 min incubation, FIG. 4
Description: Human Pulmonary Artery Smooth Muscle Cells (hPASMC) were purchased from Clonetics™ Lonza (Lonza, reference number CC-2581) and cultured in Clonetics™ smooth muscle growth medium (Clonetics™ SmGM™-2 with BulletKit™ growth factor supplements (Lonza, reference number CC-3182) at 37° C. in 5% CO2. Culture medium was replaced each 48 hours. Cells were grown in 75 cm^2 culture plates.
48 h before the experiments, cells were trypsinized (Trypsin kit One ReagentPack™ (CC-5034), Lonza) and plated in 96 well plates precoated with collagen I at 10000 cells per well. 24 h before the experiments culture medium was replaced by serum-reduced (0.5% FBS) medium.
Measurements of intracellular cGMP were performed using the Amersham cGMP EIA System (GE Healthcare, RPN226) following the instructions of the manufacturer. The assay has a sensitivity of 2 fmol cGMP per well. Briefly, incubations were terminated by adding Amersham's lysis buffer 1 and cells left for 10 min under agitation to ensure complete lysis. cGMP in samples was then acetylated using triethylamine and acetic anhydride and determined by a competitive ELISA. The ELISA is based on the competition between acetylated cGMP in cell culture lysates and a peroxidase-labelled cGMP conjugate for limited binding sites on a cGMP specific antiserum immobilized on pre-coated 96 well MTP. cGMP was determined based on a standard curve. […]

[7] = read-out: % Unbound in human plasma

| Compound | Ratio Maximum cGMP increase vs Baseline [1] | Concentration (nM) for 3-fold cGMP or 2-fold* increase vs Baseline [1] | IC50 [2] | Concentration (nM) for 3-fold cGMP increase vs Baseline [3] | Ratio Maximum cGMP increase vs Baseline [3] | Concentration (nM) for 3-fold or 2-fold* cGMP increase vs Baseline ([4]; HTMC) | Ratio Maximum cGMP increase vs Baseline ([4]; HTMC) | fraction unbound ([5]; read-out: % Bound in human plasma (converted)) | fraction unbound [5, 7] | efficacy in increasing cGMP level as compared to the reference inhibitor vardenafil [6] | % Bound in human plasma [5] | effect to elevate cGMP in HTMC compared with organic nitrate ester ITN and PDE5 inhibitors sildenafil or vardenafil ([4]; HTMC, FIG. 3A and FIG. 3B) | concentration equipotent to ITN & Vardenafil to elevate cGMP in HTMC ([4]; equipotent to 1 μM ITN & 1 μM Vardenafil) | concentration equipotent to ITN & Vardenafil to elevate cGMP in HTMC ([4]; equipotent to 10 μM ITN & 1 μM Vardenafil) | concentration equipotent to ITN & Sildenafil to elevate cGMP in HTMC ([4]; first value of pair 10.6 nM/50.8 nM, printed against 10 μM ITN & 1 μM Sildenafil) | concentration equipotent to ITN & Sildenafil to elevate cGMP in HTMC ([4]; second value of pair 10.6 nM/50.8 nM, equipotent to 10 μM ITN & 1 μM Sildenafil) |
| --- | --- | --- | --- | --- | --- | --- | --- | --- | --- | --- | --- | --- | --- | --- | --- | --- |
| CCCc1nn(C)c2c(=O)[nH]c(-c3cc(S(=O)(=O)N4CCC([C@H](CO[N+](=O)[O-])O[N+](=O)[O-])CC4)ccc3OCC)nc12 [Compound 1a, (R)-1-(1-((4-ethoxy-3-(1-methyl-7-oxo-3-propyl-6,7-dihydro-1H-pyrazolo[4,3-d]pyrimidin-5-yl)phenyl)sulfonyl)piperidin-4-yl)ethane-1,2-diyl dinitrate] | 67.4 | 57 nM | 5 nM | 222 nM | 4.44 | 26.7 nM | 55.7 |  |  |  |  |  |  |  |  |  |
| CCCc1nn(C)c2c(=O)[nH]c(-c3cc(S(=O)(=O)N4CCC([C@@H](O)CO[N+](=O)[O-])CC4)ccc3OCC)nc12 [Compound 1c, (R)-2-(1-((4-ethoxy-3-(1-methyl-7-oxo-3-propyl-6,7-dihydro-1H-pyrazolo[4,3-d]pyrimidin-5-yl)phenyl)sulfonyl)piperidin-4-yl)-2-hydroxyethyl nitrate] | 26.1 | 33.3 nM | 1 nM | 1300 nM | 3.47 | 25.1 nM | 61.9 | 0.0118 | 0.0118 | significantly higher efficacy |  |  |  |  |  |  |
| CCCc1nc(C)c2c(=O)[nH]c(-c3cc(S(=O)(=O)N4CCC([C@H](CO[N+](=O)[O-])O[N+](=O)[O-])CC4)ccc3OCC)nn12 [Compound 2a, (R)-1-(1-((4-ethoxy-3-(5-methyl-4-oxo-7-propyl-3,4-dihydroimidazo[5,1-f][1,2,4]triazin-2-yl)phenyl)sulfonyl)piperidin-4-yl)ethane-1,2-diyl dinitrate] | 152.5 | 3.3 nM | 0.42 nM | 293 nM | 10.58 | 4.2 nM | 101.7 |  | 0.002 | significantly higher efficacy | 99.80% | over-additive effects | 2.6 nM | 12.4 nM | 10.6 nM | 50.8 nM |
| CCCc1nc(C)c2c(=O)[nH]c(-c3cc(S(=O)(=O)N4CCC([C@@H](O)CO[N+](=O)[O-])CC4)ccc3OCC)nn12 [Compound 2c, (R)-2-(1-((4-ethoxy-3-(5-methyl-4-oxo-7-propyl-3,4-dihydroimidazo[5,1-f][1,2,4]triazin-2-yl)phenyl)sulfonyl)piperidin-4-yl)-2-hydroxyethyl nitrate] | 105.4 | 4.3 nM | 0.14 nM | 729 nM | 5.93 | 10.1 nM | 52.1 |  |  |  |  |  |  |  |  |  |
| CCCc1nn(C)c2c(=O)[nH]c(-c3cc(S(=O)(=O)N4CCC([C@@H](O)CO)CC4)ccc3OCC)nc12 [Compound 4, (R)-5-(5-((4-(1,2-dihydroxyethyl)piperidin-1-yl)sulfonyl)-2-ethoxyphenyl)-1-methyl-3-propyl-1,6-dihydro-7H-pyrazolo[4,3-d]pyrimidin-7-one] | 6.4 | 92.6 nM | 1.5 nM | >10000 nM | 1.04 | 99.8 nM | 12.4 |  |  |  |  |  |  |  |  |  |
| CCCc1nc(C)c2c(=O)[nH]c(-c3cc(S(=O)(=O)N4CCC([C@@H](O)CO)CC4)ccc3OCC)nn12 [Compound 25, (R)-2-(5-((4-(1,2-dihydroxyethyl)piperidin-1-yl)sulfonyl)-2-ethoxyphenyl)-5-methyl-7-propyl imidazo[5,1-f][1,2,4]triazin-4(3H)-one] | 23.3 | 5.9 nM | 0.08 nM | >10000 nM | 0.89 | 58.5 nM | 22.3 |  |  |  |  |  |  |  |  |  |
